Columns and labels:
acute insulin resistance = conditions: ref [6]; cited from earlier work
From the text: Acute insulin resistance induced by tumor necrosis factor alpha (TNFα) or dexamethasone could be ameliorated by the antioxidants N-acetylcysteine, manganese (III) tetrakis (4-benzoicacid) porphyrin (MnTBAP), or by induction of antioxidant enzymes such as superoxide dismutase or catalase.

[1] = system: patients (chronic insulin resistance); conditions: chronic antioxidant therapy, e.g., in diabetic neuropathy; ref [7]; cited from earlier work
From the text: Moreover, using the so-called “breakthrough” therapy, a 2–4 week decrease in glucotoxicity is able to normalize glycemia by decreasing insulin resistance for months or years. Because clinical insulin resistance can be reverted, it is not an alteration of the DNA, but rather some type of protein abnormality; this can be hypothesized given the background of this oxidative stress-induced clinical condition.

type 2 diabetic patients = conditions: ref [40]; cited from earlier work
From the text: Elevated levels of m- and/or o-Tyr have been described in the vascular wall of cynomolgus monkeys as well as in cataract lenses.

[2] = target: T1, C-terminal SH2 domain of PI3K regulatory subunit 1 (Homo sapiens, UniProt P27986); experiment: Fluorescence polarization binding, PI3K-SH2(C); conditions: competitive FP; statement for the SH2 domains
T1 construct: The N- and C-terminal SH2 domains (regions 321–433 and 614–724, respectively) of the PI3K regulatory subunit; hexa-histidine (inferred: expressed and purified like His-tagged PTP1B); made in house; host or cells: Escherichia coli (bacterial expression vector; strain BL21 (DE3) is stated only for PTP1B)
T1 sequence (P27986 614-724): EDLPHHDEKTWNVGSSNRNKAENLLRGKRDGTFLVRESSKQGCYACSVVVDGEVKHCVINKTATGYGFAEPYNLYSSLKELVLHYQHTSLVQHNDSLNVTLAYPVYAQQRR
From the text: The N- and C-terminal SH2 domains (regions 321–433 and 614–724, respectively) of the PI3K regulatory subunit were subcloned into a bacterial expression vector by PCR and then similarly expressed and purified as described above.
For in vitro fluorescence polarization (FP)-based affinity measurements, a peptide containing the phosphorylated tyrosine residue 632 of human IRS1 was labelled by lys-carboxyfluorescenine at its C-terminal end (GRKGSGD(pY)MPMSPKS(K-FITC). Synthesis of the labelled peptide was done by GenScript Inc. For competitive FP measurements, unlabeled peptides with either natural (para-phospho-Tyr) or unnatural (ortho-phospho-Tyr and meta-phospho-Tyr) phosphorylated amino acids (core sequence GRKGSGD(pY)MPMSPKV in all three cases) were used. Direct titration with the labelled peptide was done by generating a dilution series of the protein (N-terminal and C-terminal SH2 domains of PI3K regulatory subunit 1), with a constant (100 nM) peptide concentration in a standard buffer (100 mM NaCl, 20 mM TRIS pH = 8.0, 0.05% Brij-35 detergent). Competitive titrations were done by keeping the concentration of the protein-labelled peptide mixture constant (150 nM and 1500 nM C-terminal and N-terminal domain, respectively, with 100 nM labelled peptide) and varying the concentration of the unlabeled competitor peptide instead. […]

[3] = system: human PTP1B catalytic domain (1–299 aa); experiment: PTP1B dephosphorylation assay, capillary electrophoresis; assay type: biochemical; conditions: 80 μM phosphopeptide, 25 nM PTP1B, 50 mM TRIS, 150 mM NaCl, 1 mM EDTA, 2 mM DTT, pH 7.4
Method: The cDNA segment encoding the human PTP1B catalytic domain (1–299 aa) was PCR amplified from a HEK293T cDNA pool and inserted into the pBH4 vector with BamHI and NotI restriction sites. This construct is only missing the C-terminal flexible region and the membrane binding segment of PTP1B. The protein was expressed with an N-terminal hexa-histidine tag. Recombinant active PTP1B was expressed in the Escherichia coli BL21 (DE3) bacterial strain. Briefly, cells were grown in an ampicillin-containing LB medium at 37 °C to OD = 0.6 and then cooled down to 18 °C and induced by the addition of 0.05 mM isopropyl-beta-D-thiogalactoside (IPTG). After an overnight expression at 18 °C, the pellet was harvested and washed with phosphate buffered saline (PBS). Following freezing at −80 °C, cells were lysed in an appropriate buffer (300 mM NaCl, 50 mM phosphate, 10 mM imidazole, 2 mM beta-mercapto-ethanol, 0.1% IGEPAL with pH = 8.0, and 0.5 mM benzamidine with 0.5 mM PMSF protease inhibitors added) with the help of sonification. The lysate was centrifuged at 20,000 rpm for 30 min and the supernatant (~30 mL) was mixed with 1 mL Ni-NTA resin slurry (50%). After 45 min incubation at 4 °C, the mixture was transferred to gravity columns and washed with 10-10 mL of imidazole (40 mM imidazole, 300 mM NaCl, 50 mM phosphate, pH = 8.0 with 2 mM beta-mercapto-ethanol) and high salt (1000 mM NaCl, 20 mM imidazole, 20 mM TRIS, pH = 8.0 with 2 mM beta-mercapto-ethanol) containing wash buffers, each. PTP1B was eluted by applying 5 mL elution buffer (400 mM imidazole, 200 mM NaCl, 10% glycerol, 20 mM TRIS, pH = 8.0, with 0.1% IGEPAL). The eluted protein was supplemented with tricarboxy-ethyl-phosphine (TCEP) reducing agent at 2 mM concentration.
The Ni-NTA purified PTP1B protein was further purified by anion exchange chromatography. […]
Background electrolyte (BGE) components phosphoric acid and triethylamine were purchased from Sigma (St. Louis, MO, USA) and from Merck GmbH (Darmstadt, Germany), respectively. […] On-line absorption at 200 nm was monitored by DAD UV-Vis detector. […]

Compound: O=C(O)c1ccc(-c2c3nc(c(-c4ccc(C(=O)O)cc4)c4ccc([n-]4)c(-c4ccc(C(=O)O)cc4)c4nc(c(-c5ccc(C(=O)O)cc5)c5ccc2[n-]5)C=C4)C=C3)cc1.[Mn+3] [MnTBAP, manganese (III) tetrakis (4-benzoicacid) porphyrin]
- acute insulin resistance induced by TNFα or dexamethasone (acute insulin resistance): ameliorated

Compound: CC(=O)N[C@@H](CS)C(=O)O [N-acetylcysteine]
- acute insulin resistance induced by TNFα or dexamethasone (acute insulin resistance): ameliorated

Compound: O=C(O)CCCCC1CCSS1 (stereo not drawn) [alpha-lipoic acid]
- chronic insulin resistance [1]: able to improve chronic insulin resistance

Compound: Oc1ccc(/C=C/c2cc(O)cc(O)c2)cc1 [resveratrol]
- insulin resistance (type 2 diabetic patients): improvement in insulin resistance
- urinary excretion of o-Tyr (type 2 diabetic patients): decrease in urinary excretion of o-Tyr

Compound: GRKGSGDF(2-PO4H2)MPMSPKV [GRKV6, phospho-ortho-Tyr containing IRS-1 YXXM motif peptide]
- binding affinity compared to phospho-para-Tyr peptide (GRKV2), PI3K-SH2(C) [2]: greatly reduced binding affinity
- dephosphorylation by PTP1B [3]: incapable of dephosphorylating

Compound: GRKGSGDF(3-PO4H2)MPMSPKV [GRKV4, phospho-meta-Tyr containing IRS-1 YXXM motif peptide]
- binding affinity compared to phospho-para-Tyr peptide (GRKV2), PI3K-SH2(C) [2]: greatly reduced binding affinity
- dephosphorylation by PTP1B [3]: incapable of dephosphorylating

Compound: GRKGSGDF(4-PO4H2)MPMSPKV [GRKV2, phospho-para-Tyr containing IRS-1 YXXM motif peptide]
- dephosphorylation by PTP1B [3]: apart from the p-Tyr peptide, none of the modified Tyr containing peptides could be dephosphorylated by PTP1B
